We go through 4 compounds from patent US4447603A, “Substituted-6-n-propyl-8-methylimidazo[1,5-d]-as-triazin-4-(3H)-ones” (American Cyanamid Company, priority 1981, dated 1984).

SMILES strings stand for the structures.

This test concerns histamine release from immunologically stimulated human basophils. The test can be described thus: inhibition of mediator (histamine) release from immunologically stimulated human basophils. Format: cell-based. Conditions: Leukocyte, 1 h; human basophils (leukocytes) challenged with anti-IgE or antigen, 60 minutes at 37° C.; linear regression; read-out: ED50 (the concentration in μM which causes a 50% inhibition of histamine release). From the text: The novel compounds of this invention as well as the prior art compound, 6-n-propyl-8-methylimidazo[1,5-d]-as-triazin-4(3H)-one, have been tested by the procedure of Lichtenstein, L. M. and Osler, A. G., J. Exp. Med., 120, 507-530, (1964), which evaluates the ability of compounds to inhibit mediator (histamine) release from immunologically stimluated human basophils.
Dissolve 140.3 g. of sodium chloride, 7.45 g. of potassium chloride and 74.5 g. of Trizma-Tris Pre-Set, Reagent Grade, pH 7.6, at 25° C. (Sigma Chemical Co.) in sufficient water to give a final volume of 2 liters.
(Sigma Chemical Co.) (30 mg./ml.)
Made to 0.075 M and 0.5 M. respectively, with calcium chloride dihydrate and magnesium chloride hexahydrate.
A 10 ml. portion of 10X Tris Buffer and 1.0 ml. of human albumin are diluted to 100 ml. with water.
A 10 ml. portion of 10X Tris Buffer, 1.0 ml. of human albumin. 0.8 ml. of calcium stock and 0.2 ml. of magnesium stock are diluted to 100 ml. with water.
Behring Diagnostics (Generally used at 10 μg. protein/ml. final concentration.)
Strength 1:100 (w:v) allergenic extract, Hollister-Stier Labs. Generally this is diluted 1:1000 to 1:10,000 (considering the vial as stock).
Intradermal solutions or intramuscular preparations for hyposensitization, Hollister-Stier Labs. The final concentration used is on the order of 1 PNU/ml.
Eighty milliliters of blood is withdrawn from subjects with known histamine release to anti-IgE, ragweed antigen or other specific allergen, using four 20 ml. heparinized tubes. This 80 ml. of blood is mixed with 20 ml. of saline containing 0.6 g. of dextrose and 1.2 g. of dextran. The blood is allowed to sediment at room temperature in two 50 ml. polycarbonate centrifuge tubes until a sharp interface develops between the red cells and plasma (60-90 minutes). The plasma (top) layer from each tube is withdrawn by pipet and transferred to respective 50 ml. polycarbonate tubes. The plasma is centrifuged for 8 minutes at 110X g at […] The supernatant is carefully poured off as completely as possible and the cell button is resuspended in 2-3 ml. of Tris-A buffer using a siliconized Pasteur pipet. The resuspension is accomplished by drawing the liquid gently in and out of the pipet, with the tip below the liquid, until an even suspension of cells is obtained. Sufficient Tris-A buffer is then added to bring the volume in the tube to about 45 ml. and the tube is centrifuged at 110X g for 8 minutes at 4° C. The supernatant is poured off and the cell button is resuspended and centrifuged as described above. […]

As for `CCCc1n[nH]c(=O)n2c(CCC)nc(C)c12` [1,6-Di-n-propyl-8-methylimidazo[1,5-d]-as-triazin-4(3H)-one], the IC50 was determined as 16.1 µM.
For `CCCc1nc(C)c2c(CC)n[nH]c(=O)n12` [1-Ethyl-6-n-propyl-8-methylimidazo[1,5-d]-as-triazin-4(3H)-one], the IC50 turned out to be 12.3 µM.
The result for `CCCc1nc(C)c2c(C)n[nH]c(=O)n12` [1,8-Dimethyl-6-n-propylimidazo[1,5-d]-as-triazin-4(3H)-one] reads 13.1 µM.
The result for `CCCc1nc(C)c2cn[nH]c(=O)n12` [6-n-propyl-8-methylimidazo[1,5-d]-as-triazin-4(3H)-one, reference compound] reads 87 µM.
